Measurements published in patent US10787452B2 (Vertex Pharmaceuticals Incorporated, priority 2012, dated 2020).

tested on: HCT116 colorectal cancer cells; experiment: Cisplatin sensitization assay (96 h cell viability MTS); assay type: cell-based; details: 96 h MTS, compound plus Cisplatin;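 further: compound concentration needed to lower the Cisplatin-alone IC50 by a set fold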
Summary of the method: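 Cisplatin and compound are dosed at the same time, both serially diluted 2-fold from 10 μM final across a full matrix. Plates sit at 37° C in 5% CO2 for 96 h before MTS addition.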

Row | SMILES | Cisplatin Sensitization Assay
1 | Nc1nn2cc(F)cnc2c1C(=O)Nc1cnccc1OC1COC1 [I-O-92, 2-amino-6-fluoro-N-(4-(oxetan-3-yloxy)pyridin-3-yl)pyrazolo[1,5-a]pyrimidine-3-carboxamide] | +++ (Compounds with a Cisplatin sensitization value of <0.02 μM are marked with “+++.”)
2 | Cn1ccc2c(NC(=O)c3c(N)nn4cc(F)cnc34)cncc21 [I-C-74, 2-amino-6-fluoro-N-(1-methyl-1H-pyrrolo[2,3-c]pyridin-4-yl)pyrazolo[1,5-a]pyrimidine-3-carboxamide] | + (Compounds with a Cisplatin sensitization value >0.2 μM but <5 μM are marked with “+.”)
3 | Nc1nn2cc(F)cnc2c1C(=O)Nc1cncc(F)c1C1=CCN(C2COC2)CC1 [I-C-12, 2-amino-6-fluoro-N-(5-fluoro-1′-(oxetan-3-yl)-1′,2′,3′,6′-tetrahydro-[4,4′-bipyridin]-3-yl)pyrazolo[1,5-a]pyrimidine-3-carboxamide] | +++ (Compounds with a Cisplatin sensitization value of <0.02 μM are marked with “+++.”)
4 | CN1CCC[C@H]1C(=O)N1CCN(c2c(F)cncc2NC(=O)c2c(N)nn3cc(F)cnc23)CC1 [I-N-157, (S)-2-amino-6-fluoro-N-(5-fluoro-4-(4-(1-methylpyrrolidine-2-carbonyl)piperazin-1-yl)pyridin-3-yl)pyrazolo[1,5-a]pyrimidine-3-carboxamide] | ++ (Compounds with a Cisplatin sensitization value >0.02 μM but <0.2 μM are marked with “++.”)
5 | Nc1nn2cc(F)cnc2c1C(=O)Nc1cnccc1N1CCC(c2nnco2)CC1 [I-N-268, N-(4-(4-(1,3,4-oxadiazol-2-yl)piperidin-1-yl)pyridin-3-yl)-2-amino-6-fluoropyrazolo[1,5-a]pyrimidine-3-carboxamide] | +++ (Compounds with a Cisplatin sensitization value of <0.02 μM are marked with “+++.”)
6 | CN1CCC(S(=O)(=O)N2CCN(c3ccncc3NC(=O)c3c(N)nn4cc(F)cnc34)CC2)CC1 [I-N-188, 2-amino-6-fluoro-N-(4-(4-((1-methylpiperidin-4-yl)sulfonyl)piperazin-1-yl)pyridin-3-yl)pyrazolo[1,5-a]pyrimidine-3-carboxamide] | +++ (Compounds with a Cisplatin sensitization value of <0.02 μM are marked with “+++.”)
7 | Cn1cc(-c2ccncc2NC(=O)c2c(N)nn3cc(F)cnc23)ccc1=O [I-C-59, 2-amino-6-fluoro-N-(1-methyl-6-oxo-1,6-dihydro-[3,4′-bipyridin]-3′-yl)pyrazolo[1,5-a]pyrimidine-3-carboxamide] | ++ (Compounds with a Cisplatin sensitization value >0.02 μM but <0.2 μM are marked with “++.”)
8 | Nc1nn2cc(F)cnc2c1C(=O)Nc1cnccc1C1CCN(C(=O)C23CCN(CC2)CC3)CC1 [I-C-18, 2-amino-6-fluoro-N-(4-(1-(quinuclidine-4-carbonyl)piperidin-4-yl)pyridin-3-yl)pyrazolo[1,5-a]pyrimidine-3-carboxamide] | + (Compounds with a Cisplatin sensitization value >0.2 μM but <5 μM are marked with “+.”)
9 | Nc1nn2cc(F)cnc2c1C(=O)Nc1cnccc1-c1ccc(C(=O)N2CCN(C3COC3)CC2)cc1F [I-C-51, 2-amino-6-fluoro-N-(4-(2-fluoro-4-(4-(oxetan-3-yl)piperazine-1-carbonyl)phenyl)pyridin-3-yl)pyrazolo[1,5-a]pyrimidine-3-carboxamide] | ++ (Compounds with a Cisplatin sensitization value >0.02 μM but <0.2 μM are marked with “++.”)
10 | Nc1nn2cc(F)cnc2c1C(=O)Nc1cnccc1N1CCN2C(=O)CCCC2C1 (stereo not shown) [I-N-244, 2-amino-6-fluoro-N-(4-(6-oxohexahydro-1H-pyrido[1,2-a]pyrazin-2(6H)-yl)pyridin-3-yl)pyrazolo[1,5-a]pyrimidine-3-carboxamide] | +++ (Compounds with a Cisplatin sensitization value of <0.02 μM are marked with “+++.”)
11 | CN(C)C1CCCN(c2ccncc2NC(=O)c2c(N)nn3cc(Cl)cnc23)C1 (stereo not shown) [I-N-40, 2-amino-6-chloro-N-(4-(3-(dimethylamino)piperidin-1-yl)pyridin-3-yl)pyrazolo[1,5-a]pyrimidine-3-carboxamide] | ++ (Compounds with a Cisplatin sensitization value >0.02 μM but <0.2 μM are marked with “++.”)
12 | N#CC1(C(=O)N2CCC(c3ccncc3NC(=O)c3c(N)nn4cc(F)cnc34)CC2)CC1 [I-C-71, 2-amino-N-(4-(1-(1-cyanocyclopropanecarbonyl)piperidin-4-yl)pyridin-3-yl)-6-fluoropyrazolo[1,5-a]pyrimidine-3-carboxamide] | +++ (Compounds with a Cisplatin sensitization value of <0.02 μM are marked with “+++.”)
13 | CNC(=O)C1CCN(c2c(F)cncc2NC(=O)c2c(N)nn3cc(F)cnc23)CC1 [I-G-33, 2-amino-6-fluoro-N-(5-fluoro-4-(4-(methylcarbamoyl)piperidin-1-yl)pyridin-3-yl)pyrazolo[1,5-a]pyrimidine-3-carboxamide] | +++ (Compounds with a Cisplatin sensitization value of <0.02 μM are marked with “+++.”)
14 | Nc1nn2cc(F)cnc2c1C(=O)Nc1cncc(Cl)c1N1CCC(C(=O)N2CCN3CCC2C3)CC1 (stereo not shown) [I-G-69, N-(4-(4-(1,4-diazabicyclo[3.2.1]octane-4-carbonyl)piperidin-1-yl)-5-chloropyridin-3-yl)-2-amino-6-fluoropyrazolo[1,5-a]pyrimidine-3-carboxamide] | +++ (Compounds with a Cisplatin sensitization value of <0.02 μM are marked with “+++.”)
15 | Nc1nn2cc(F)cnc2c1C(=O)Nc1cnccc1C1CCN(C2COC2)CC1 [I-C-10, 2-amino-6-fluoro-N-(4-(1-(oxetan-3-yl)piperidin-4-yl)pyridin-3-yl)pyrazolo[1,5-a]pyrimidine-3-carboxamide] | +++ (Compounds with a Cisplatin sensitization value of <0.02 μM are marked with “+++.”)
16 | COc1cncc(NC(=O)c2c(N)nn3cc(F)cnc23)c1-c1cncn1C [I-C-81, 2-amino-6-fluoro-N-(5-methoxy-4-(1-methyl-1H-imidazol-5-yl)pyridin-3-yl)pyrazolo[1,5-a]pyrimidine-3-carboxamide] | +++ (Compounds with a Cisplatin sensitization value of <0.02 μM are marked with “+++.”)
17 | N#CCc1cnc2c(C(=O)Nc3cnccc3OCC(F)(F)F)c(N)nn2c1 [I-O-34, 2-amino-6-(cyanomethyl)-N-(4-(2,2,2-trifluoroethoxy)pyridin-3-yl)pyrazolo[1,5-a]pyrimidine-3-carboxamide] | ++ (Compounds with a Cisplatin sensitization value >0.02 μM but <0.2 μM are marked with “++.”)
18 | Nc1nn2cc(Cl)cnc2c1C(=O)Nc1cnccc1N1CCC(N2CCn3cncc3C2)CC1 [I-N-101, 2-amino-6-chloro-N-(4-(4-(5,6-dihydroimidazo[1,5-a]pyrazin-7(8H)-yl)piperidin-1-yl)pyridin-3-yl)pyrazolo[1,5-a]pyrimidine-3-carboxamide] | ++ (Compounds with a Cisplatin sensitization value >0.02 μM but <0.2 μM are marked with “++.”)
19 | Nc1nn2cc(F)cnc2c1C(=O)Nc1cnccc1N1CCN(C2COC2)C2CC21 (stereo not shown) [I-N-31, 2-amino-6-fluoro-N-(4-(5-(oxetan-3-yl)-2,5-diazabicyclo[4.1.0]heptan-2-yl)pyridin-3-yl)pyrazolo[1,5-a]pyrimidine-3-carboxamide] | + (Compounds with a Cisplatin sensitization value >0.2 μM but <5 μM are marked with “+.”)
